Test system: benzodiazepine receptors
Assay: in vivo displacement of 3H-flunitrazepam binding from benzodiazepine receptors in a living brain
Conditions: dose which reduces specific binding of 3H-flunitrazepam to benzodiazepine receptors in a living brain to 50% of the control value
Excerpt: The pharmaceutical properties of the compounds of the invention can be illustrated by determining their capability for displacing radioactive labelled flunitrazepam from benzodiazepine receptors.
The displacement activity of the compounds of the invention may be found by determining the ED50 value. The ED50 value represents the dose (mg/kg) of a test substance which causes the specific binding of ^3 H-flunitrazepam to benzodiazepine receptors in a living brain to be reduced to 50% of the control value.
Such an in vivo test is carried out as described in U.S. Pat. No. 4,774,245.

SMILES	ED50
c1ccc2c(c1)c1ncnn1c1c(-c3nc(C4CC4)no3)ncn21 [Compound 3, 5-(3-cyclopropyl-1,2,4-oxadiazol-5-yl)-imidazo[1,5-a]-[1,2,4]triazolo[1,5-c]quinazoline]	0.16 mg/kg
Clc1cccc2c1c1ncnn1c1c(-c3nc(C4CC4)no3)ncn21 [Compound 5, 12-chloro-5-(3-cyclopropyl-1,2,4-oxadiazol-5-yl)-imidazo[1,5-a][1,2,4]triazolo[1,5-c]quinazoline]	0.30 mg/kg
